What was measured:
[1] = molecular target: C3 convertase (CVF:Bb) (Homo sapiens, UniProt P00751); test: C3 Convertase Assay (biochemical assay, compound contacted with CVF:Bb, then C3 substrate added)
Text: Various technologies are available for assessing provided compounds, compositions and methods. In some embodiments, a useful assay is an assay described below. […] In some embodiments, a purified, isolated or enriched C3 convertase is utilized. […] In some embodiments, a compound was first contacted with CVF:Bb, followed by addition of C3 substrates. As those skilled in the art will appreciate, products C3a and/or C3b could be detected through a number of technologies (e.g., antibodies specific for a product) and reduction of levels of one or both of them could be utilized to assess inhibition.

[2] = system: complement alternative pathway; test: Wieslab AP assay (Complement Alternative Pathway ELISA, human serum as source of complement); type: biochemical; settings: read-out: B: Wieslab AP IC50 (nM) (alternative pathway)
Text: Among other things, the present disclosure provides compounds and compositions that can modulate complement activation. In some embodiments, provided technologies inhibit complement activation. In some embodiments, provided technologies inhibit C3 convertase. Various technologies are available for assessing provided compounds, compositions and methods. In some embodiments, a useful assay is an assay described below. In some embodiments, IC50 of a provided compound measured in an assay is about or no more than about 1000, 900, 800, 700, 600, 500, 400, 300, 200, 100, 90, 80, 70, 60, 50, 40, 30, 20, or 10 nM. In some embodiments, a useful assay is a biochemical assay assessing inhibition of C3 convertase activity by a provided compound. In some embodiments, a purified, isolated or enriched C3 convertase is utilized. In some embodiments, CVF:Bb (e.g., assembled from three components Cobra Venom Factor (CVF), Complement Factor B (FB) and Complement Factor D (FD)) was utilized (certain results are presented as “A” in the Table below). In some embodiments, a compound was first contacted with CVF:Bb, followed by addition of C3 substrates. As those skilled in the art will appreciate, products C3a and/or C3b could be detected through a number of technologies (e.g., antibodies specific for a product) and reduction of levels of one or both of them could be utilized to assess inhibition. In some embodiments, a useful assay is Wieslab© assay (certain results are presented as “B” in the Table below).
In some embodiments, classical and alternative pathway activity are assessed using Wieslab© technologies. In some embodiments, Wieslab© assay were performed with a commercially available kit, using a protocol adapted for measurement of complement inhibitory activity of compounds. In some embodiments, human serum was utilized as a positive control. In some embodiments, human serum serves as a source of complement proteins, and inhibition of complement activity of a serum by various compounds were assessed. In some embodiments, a kit is COMPL AP330, Complement Alternative Pathway ELISA, Eagle Biosciences. In some embodiments, a kit is COMPL CP310, Complement Classical Pathway ELISA, Eagle Biosciences. In some embodiments, kits are available from VWR (102994-104, Complement Alternative pathway ELISA, Eagle Biosciences, Inc.; 102994-106, Complement Classical pathway ELISA, Eagle Biosciences, Inc.).
In some embodiments, a useful procedure described below is utilized. • 1. Make fresh test compound stock at 1 mM. • 2. Test compound serial dilution: dilute the stock to working stock concentrations. Add DMSO to dilution buffer using same dilution factor for the working stock so the composition of all the serial diluted stock is the same. In some embodiments, stock was serial diluted from the working stock 1:4 (for classical pathway) or 1:2 (for alternative pathway) using new diluted dilution buffers. • 3. Dilute positive controls using the dilution buffer provided with the assay kit to 2× of the final conc., for classical pathway, 50.5×. Positive control is human serum, which contains complement proteins. • 4. Add 125 μL of test compound solution and 125 μL of diluted positive control to a 96 well polypropylene plate, mix gently and cover the plate and incubate at 4° C. for 30 min. • 5. Add 100 μL/well to the assay plate and incubate at 37° C. for 1 h. Typically, controls in the assay plate, for example, buffer alone for negative control, positive control alone to verify the complement activity of the reagent. • 6. Wash plate and add 100 μL/well conjugate, incubate at room temperature for 30 min. • 7. Wash plate and add 100 μL/well substrate, then incubate at room temperature for approximately 30 minutes. Periodically monitor the absorbance at 405 nm (OD405) in the positive control alone well. • 8. Once the OD405 is >1, read the whole plate immediately. Or stop the reaction by adding 100 μL of 5 mM EDTA to each well and read within 60 minutes.

[3] = system: complement activation; settings: relative to compstatin amidated at the C-terminus; published data; cited from earlier work

Sequence of C3 convertase (CVF:Bb) (P00751 260-764 limits assumed): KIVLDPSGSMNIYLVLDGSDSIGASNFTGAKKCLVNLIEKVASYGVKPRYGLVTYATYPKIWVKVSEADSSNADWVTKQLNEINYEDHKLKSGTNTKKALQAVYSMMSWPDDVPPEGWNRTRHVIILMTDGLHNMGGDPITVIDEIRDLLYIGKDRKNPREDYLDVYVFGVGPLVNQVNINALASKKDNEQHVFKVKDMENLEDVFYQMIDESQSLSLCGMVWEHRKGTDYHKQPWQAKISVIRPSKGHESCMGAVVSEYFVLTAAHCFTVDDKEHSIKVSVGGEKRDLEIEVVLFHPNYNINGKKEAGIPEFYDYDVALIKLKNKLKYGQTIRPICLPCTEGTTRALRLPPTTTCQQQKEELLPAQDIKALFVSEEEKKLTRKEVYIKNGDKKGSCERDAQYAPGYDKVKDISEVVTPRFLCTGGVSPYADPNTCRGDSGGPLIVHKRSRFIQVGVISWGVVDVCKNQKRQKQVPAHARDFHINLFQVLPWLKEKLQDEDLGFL

COc1cc(C)c2[nH]ccc2c1CN1CCN(C)CC1c1ccc(C(=O)O)cc1 (stereo not shown)
IC50 [1]: 163 nM | IC50 [2]: 1570 nM

CCN1CCN(Cc2c(OC)cc(C)c3[nH]ccc23)C(c2ccc(C(=O)O)cc2)C1 (stereo not shown)
IC50 [1]: 219 nM | IC50 [2]: 205 nM

COc1cc(C)c2[nH]ccc2c1CN1CCN(C2CC2)CC1c1ccc(C(=O)O)cc1 (stereo not shown)
IC50 [1]: 141 nM | IC50 [2]: 29 nM

C=CCN1CCN(Cc2c(OC)cc(C)c3[nH]ccc23)C(c2ccc(C(=O)O)cc2)C1 (stereo not shown)
IC50 [1]: 250 nM | IC50 [2]: 1490 nM

COc1cc(C)c2[nH]ccc2c1CN1CCN(CCF)CC1c1ccc(C(=O)O)cc1 (stereo not shown)
IC50 [1]: 65 nM | IC50 [2]: 107 nM

COc1cc(C)c2[nH]ccc2c1CN1CCN(CC(F)F)CC1c1ccc(C(=O)O)cc1 (stereo not shown)
IC50 [1]: 76 nM | IC50 [2]: 36 nM

COc1cc(C)c2[nH]ccc2c1CN1CCN(CCC(F)(F)F)C[C@H]1c1ccc(C(=O)O)nc1
IC50 [1]: 96 nM | IC50 [2]: 34 nM

COc1cc(C)c2[nH]ccc2c1CN1CCN(CCC(F)(F)F)C[C@@H]1c1ccc(C(=O)O)nc1
IC50 [1]: 6440 nM | IC50 [2]: > 10000 nM

COc1cc(C)c2[nH]ccc2c1CN1CCN(Cc2ncc[nH]2)C[C@H]1c1ccc(C(=O)O)cc1
IC50 [1]: > 10000 nM | IC50 [2]: 8860 nM

COc1cc(C)c2[nH]ccc2c1CN1CCN(C)C[C@H]1c1ccc(C(=O)O)cc1 (single isomer, unassigned)
IC50 [1]: 45 nM | IC50 [2]: 64 nM

Ac-ICV(1-Nal)QDWGAHRCT-COOH [Ac V4(1-Nal)/H9A-OH]
Activity over compstatin [3]: 30xmore

Ac-ICV(2-Igl)QDWGAHRCT-CONH2 [Ac-V42Igl/H9A]
Activity over compstatin [3]: 39xmore

Ac-ICV(2-Igl)QDWGAHRCT-COOH [Ac-V42Igl/H9A-OH]
Activity over compstatin [3]: 37xmore

Ac-ICV(2-Nal)QDWGAHRCT-CONH2 [Ac-V4(2-Nal)/H9A]
Activity over compstatin [3]: 99xmore

Ac-ICV(2-Nal)QDWGAHRCT-COOH [Ac V4(2-Nal)/H9A-OH]
Activity over compstatin [3]: 38xmore

Ac-ICV(Bpa)QDWGAHRCT-CONH2 [Ac-V4(Bpa)/H9A]
Activity over compstatin [3]: 86xmore

Ac-ICV(Bpa)QDWGAHRCT-COOH [Ac-V4(Bpa)/H9A-OH]
Activity over compstatin [3]: 49xmore

Ac-ICVDhtQDWGAHRCT-COOH [Ac-V4Dht/H9A-OH]
Activity over compstatin [3]: 5xmore

Ac-ICVWQD(5fW)GAHRCT-CONH2 [Ac-V4W/W7(5fW)/H9A]
Activity over compstatin [3]: 121xmore

Ac-ICVWQDWGAHRCT-CONH2 (Ac-ICVWQDWGAHRCT-NH2; cysteine pairing not given here) [Ac-V4W/H9A, "compstatin analogs useful in the present disclosure"]
Activity over compstatin [3]: 45xmore

Ac-ICVWQDWGAHRCdT-COOH [Ac-V4W/H9A/T13dT-OH]
Activity over compstatin [3]: 55xmore

Ac-ICVYQDWGAHRCT-CONH2 [Ac-V4Y/H9A]
Activity over compstatin [3]: 14xmore

Ac-ICWVQDWGHHRCT-CONH2 (Ac-ICWVQDWGHHRCT-NH2; not fully specified (bridges); printed as Ac-ICWVQDWGHHRCT-CONH2; cysteine pairing not given here) [Ac-compstatin, "compstatin analogs useful in the present disclosure"]
Activity over compstatin [3]: 3xmore

H-GICV(6fW)QD(6fW)GAHRCTN-COOH [+G/V4(6fW)/W7(6fW)H9A + N-OH]
Activity over compstatin [3]: 126xmore

Source: US20240360103A1, “COMPLEMENT INHIBITION” (Apellis Pharmaceuticals, Inc., priority 2021, published 2024)
